# Columns and labels:
# [1] = In vitro skin permeation (diffusion) study, open Franz diffusion cells, whole abdominal human skin; settings: for Flux, IPM: steady state, IPM solution not saturated, human skin
# physchem = test: physchem
# Method: (§1) The experimental methods used for these determinations are described below.
# The mixtures were placed in an ultrasonic bath for 10 min and then rotated on a mechanical spindle for 24 h and filtered. After rotation for 1 h the pH of the phosphate buffer mixtures was adjusted to 7.0. An aliquot of the filtrates was diluted with water or acetonitrile and analyzed by HPLC.
# [2] = Apparent partition coefficient (P) between octanol and pH 7.4 aqueous buffer at 21° C.; settings: octanol / phosphate buffer
# Method: as §1
# The concentration of the compounds in the aqueous phase before and after partitioning was determined by HPLC analysis, and the partition coefficients determined.
# [3] = pH 7
# in vitro = settings: human
# [4] = isopropyl myristate, organic solvent or mixture
# [5] = phosphate buffer, pH 7, aqueous buffer
Compound,"Flux, IPM ([1]; 200 mg/ml)",solubility at 24 h (physchem; [4]),solubility at 24 h (physchem; [5]),logD [2],"Flux, Buffer [3]",Papp (in vitro),Papp (in vitro; pH 7),Amount penetrated present in the receptor phase as the 6-monoester ([1]; receptor phase composition after human skin permeation),"Flux, IPM ([1]; 125 mg/ml)"
3-Butoxy-morphlne,8.3 ± 2.2 μg/cm^2 /h,–,–,–,–,–,–,–,–
"CCCCCC(=O)Oc1ccc2c3c1O[C@H]1[C@@H](OC(=O)CCCCC)C=C[C@H]4[C@@H](C2)N(C)CC[C@@]341 [3,6-Dihexanoyl-morphine, 3,6-dihexanoyl morphine]",11.7 ± 1.2 μg/cm^2 /h,> 200 mg/mL,0.02 mg/mL,> 4,1.7 ± 0.2 μg/cm^2 /h,> 0.0444 ×10⁻⁶ cm/s,38.9 ×10⁻⁶ cm/s,–,–
"CC(C)C(=O)Oc1ccc2c3c1O[C@H]1[C@@H](OC(=O)C(C)C)C=C[C@H]4[C@@H](C2)N(C)CC[C@@]341 [3,6-Diisobutyryl-morphine, 3,6-diisobutyryl morphine]",–,80 mg/mL,0.6 mg/mL,2.6,–,–,–,–,–
"CCC(=O)Oc1ccc2c3c1O[C@H]1[C@@H](OC(=O)CC)C=C[C@H]4[C@@H](C2)N(C)CC[C@@]341 [3,6-Dipropionyl-morphine, 3,6-dipropionyl morphine]",–,41 mg/mL,3.6 mg/mL,1.66,2.5 ± 0.5 μg/cm^2 /h,–,0.278 ×10⁻⁶ cm/s,~50%,–
CC(=O)Oc1ccc2c3c1O[C@H]1[C@@H](O)C=C[C@H]4[C@@H](C2)N(C)CC[C@@]341 [3-Acetyl-morphine],11.4 ± 1.8 μg/cm^2 /h,–,–,–,–,–,–,–,–
"CCCCCC(=O)Oc1ccc2c3c1O[C@H]1[C@@H](O)C=C[C@H]4[C@@H](C2)N(C)CC[C@@]341 [3-Hexanoyl-morphine, 3-hexanoyl morphine]",–,> 150 mg/mL,2.6 mg/mL,2.04,25.3 ± 4.2 μg/cm^2 /h,> 0.0667 ×10⁻⁶ cm/s,3.61 ×10⁻⁶ cm/s,–,35.6 ± 12.0 μg/cm^2 /h
CC(C)C(=O)Oc1ccc2c3c1O[C@H]1[C@@H](O)C=C[C@H]4[C@@H](C2)N(C)CC[C@@]341 [3-Isobutyryl-morphine],27.0 ± 3.3 μg/cm^2 /h,–,–,–,–,–,–,–,–
"CCC(=O)Oc1ccc2c3c1O[C@H]1[C@@H](O)C=C[C@H]4[C@@H](C2)N(C)CC[C@@]341 [3-Propionyl-morphine, 3-propionyl morphine]",–,79 mg/mL,21 mg/mL,0.66,–,–,–,–,–
CCCCC(=O)Oc1ccc2c3c1O[C@H]1[C@@H](O)C=C[C@H]4[C@@H](C2)N(C)CC[C@@]341 [3-Valeryl-morphine],16.5 ± 2.7 μg/cm^2 /h,–,–,–,–,–,–,–,–

# Reference: patent US5908846A (priority 1993, dated 1999)
